Reference: PubChem BioAssay AID330 (DTP/NCI, 2004)
Several values for one entry are separate records, joined by “and”; a condition that tells them apart may be missing. Equal entries are not always repeated. Inconclusive results and toxic doses are left out.

System: P388 leukemia ip, CD2F1 mice, survival T/C
Test: NCI In Vivo Anticancer Drug Screen. Data for tumor model P388 Leukemia (intraperitoneal) in CD2F1 (CDF1) mice
Conditions: endpoint: median survival time, higher = longer survival
How it was run: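 Mice carrying the transplanted tumor received test compound or vehicle. Survival was recorded in each group, and the value is the treated-group measurement divided by that of the vehicle-treated control group.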

[1] = dose: 50.0 mg/kg/injection, schedule: Q01DX005 (ip), vehicle: Klucel (hydroxypropylcellulose) (HPC)
[2] = dose: 100.0 mg/kg/injection, schedule: Q01DX005 (ip), vehicle: Klucel (hydroxypropylcellulose) (HPC)
[3] = dose: 200.0 mg/kg/injection, schedule: Q01DX005 (ip), vehicle: Klucel (hydroxypropylcellulose) (HPC)
[4] = dose: 50.0 mg/kg/injection, schedule: Q01DX009 (ip), vehicle: suspension in saline
[5] = dose: 100.0 mg/kg/injection, schedule: Q01DX009 (ip), vehicle: suspension in saline
[6] = dose: 200.0 mg/kg/injection, schedule: Q01DX009 (ip), vehicle: suspension in saline
[7] = dose: 50.0 mg/kg/injection, schedule: Q01DX009 (ip), vehicle: saline with Tween-80
[8] = dose: 100.0 mg/kg/injection, schedule: Q01DX009 (ip), vehicle: saline with Tween-80
[9] = dose: 200.0 mg/kg/injection, schedule: Q01DX009 (ip), vehicle: saline with Tween-80
[10] = dose: 6.25 mg/kg/injection, schedule: Q01DX009 (ip), vehicle: saline with Tween-80
[11] = dose: 12.5 mg/kg/injection, schedule: Q01DX009 (ip), vehicle: saline with Tween-80
[12] = dose: 25.0 mg/kg/injection, schedule: Q01DX009 (ip), vehicle: saline with Tween-80

With COc1cccc(CC#N)c1O the T/C (dose: 25.0 mg/kg/injection, schedule: Q01DX009 (ip), vehicle: Klucel (hydroxypropylcellulose) (HPC)) was 105 % of control, the T/C (dose: 50.0 mg/kg/injection, schedule: Q01DX009 (ip), vehicle: Klucel (hydroxypropylcellulose) (HPC)) was 100 % of control and the T/C (dose: 100.0 mg/kg/injection, schedule: Q01DX009 (ip), vehicle: Klucel (hydroxypropylcellulose) (HPC)) was 106 % of control.

With CSC(=O)NC(=Nc1ccccc1)NC(=O)c1ccccc1 the T/C (dose: 12.5 mg/kg/injection, schedule: Q01DX005 (ip), vehicle: Klucel (hydroxypropylcellulose) (HPC)) was 90 % of control, the T/C (dose: 25.0 mg/kg/injection, schedule: Q01DX005 (ip), vehicle: Klucel (hydroxypropylcellulose) (HPC)) was 93 % of control and the T/C [1] was 91 % of control. For the same compound, the T/C [2] was 88 % of control and the T/C [3] was 89 % of control and 91 % of control.

CCC(C)OC(=S)SSC(=S)OC(C)CC (stereo not drawn) was tested, and the T/C (dose: 25.0 mg/kg/injection, schedule: Q01DX009 (ip), vehicle: suspension in saline) was 105 % of control, the T/C [4] was 96 % of control and the T/C [5] was 98 % of control. For the same compound, the T/C [6] was 109 % of control.

For Cc1ccc(S(=O)(=O)N/N=C/c2c(Cl)n(C(=O)c3ccccc3F)c3ccccc23)cc1, the T/C (dose: 50.0 mg/kg/injection, schedule: Q01DX001 (ip), vehicle: Klucel (hydroxypropylcellulose) (HPC)) was 93 % of control, the T/C (dose: 100.0 mg/kg/injection, schedule: Q01DX001 (ip), vehicle: Klucel (hydroxypropylcellulose) (HPC)) was 95 % of control and the T/C (dose: 200.0 mg/kg/injection, schedule: Q01DX001 (ip), vehicle: Klucel (hydroxypropylcellulose) (HPC)) was 90 % of control. For the same compound, the T/C (dose: 400.0 mg/kg/injection, schedule: Q01DX001 (ip), vehicle: Klucel (hydroxypropylcellulose) (HPC)) was 86 % of control.

For CCOC(=O)C(Cc1ccc(O)cc1)NS(=O)(=O)c1ccc(C)cc1 (stereo not drawn), the T/C [7] was 98 % of control, the T/C [8] was 100 % of control and the T/C [9] was 108 % of control.

With N#C/C(=C\c1ccc([N+](=O)[O-])o1)[N+](=O)[O-] the T/C (dose: 50.0 mg/kg/injection, schedule: Q01DX009 (ip), vehicle: saline) was 103 % of control and the T/C (dose: 100.0 mg/kg/injection, schedule: Q01DX009 (ip), vehicle: saline) was 93 % of control.

In the case of CC(=O)Nc1ccc(C(=O)C(C)Br)cc1 (stereo not drawn), the T/C [10] is reported as 106 % of control and 117 % of control and 119 % of control, the T/C [11] is reported as 116 % of control and 117 % of control and 124 % of control and the T/C [12] is reported as 108 % of control and 119 % of control and 124 % of control.

In the case of CN1CCN=C1c1ccc(NC(=O)c2ccc(C(=O)Nc3ccc(C4=NCCN4C)cc3)c(N)c2)cc1, the T/C (dose: 1.32 mg/kg/injection, schedule: Q01DX009 (ip), vehicle: saline) is reported as 120 % of control, the T/C (dose: 3.0 mg/kg/injection, schedule: Q01DX009 (ip), vehicle: saline) is reported as 150 % of control and the T/C (dose: 5.0 mg/kg/injection, schedule: Q04DX003 (ip), vehicle: saline with Tween-80) is reported as 95 % of control. The T/C (dose: 10.0 mg/kg/injection, schedule: Q04DX003 (ip), vehicle: saline with Tween-80) was 95 % of control and the T/C (dose: 20.0 mg/kg/injection, schedule: Q04DX003 (ip), vehicle: saline with Tween-80) was 90 % of control.

C=CC(=O)NCCSSCCNC(=O)C=C was tested, and the T/C [10] was 108 % of control, the T/C [11] was 99 % of control and the T/C [12] was 93 % of control. The T/C [8] was 98 % of control.

In the case of CC(C)=NN/C=N/S(=O)(=O)c1ccc(C)cc1, the T/C [1] is reported as 104 % of control, the T/C [2] is reported as 104 % of control and the T/C [3] is reported as 104 % of control.

O=C1CSC(=S)N1c1cc(Cl)c(Cl)cc1Cl was tested, and the T/C [4] was 102 % of control, the T/C [5] was 100 % of control and the T/C [6] was 93 % of control.

In the case of [Cu+2].[O-]/C(=N\N=C/c1ccco1)c1ccccc1O.[O-]/C(=N\N=C/c1ccco1)c1ccccc1O.[OH3+].[OH3+], the T/C (dose: 400.0 mg/kg/injection, schedule: Q04DX002 (ip), vehicle: saline with Tween-80) is reported as 93 % of control.

BrCC[Se]c1ccccc1 was tested, and the T/C [12] was 103 % of control, the T/C [7] was 112 % of control and 117 % of control and the T/C [8] was 120 % of control and 124 % of control.

CC(=O)NC(CCSSCCC(NC(C)=O)C(=O)ON1C(=O)CCC1=O)C(=O)ON1C(=O)CCC1=O (stereo not drawn) was tested, and the T/C (dose: 50.0 mg/kg/injection, schedule: Q01DX005 (ip), vehicle: saline with Tween-80) was 104 % of control, the T/C (dose: 100.0 mg/kg/injection, schedule: Q01DX005 (ip), vehicle: saline with Tween-80) was 105 % of control and the T/C (dose: 200.0 mg/kg/injection, schedule: Q01DX005 (ip), vehicle: saline with Tween-80) was 104 % of control.

For COc1cccc2c1C(=O)c1c(O)c3c(c(O)c1C2=O)CC(O)(/C(C)=N/NS(=O)(=O)c1ccc(C)cc1)CC3OC1CC(N)C(O)C(C)O1 (stereo not drawn), the T/C (dose: 0.78 mg/kg/injection, schedule: Q01DX009 (ip), vehicle: water) was 118 % of control, the T/C (dose: 1.56 mg/kg/injection, schedule: Q01DX009 (ip), vehicle: water) was 113 % of control and the T/C (dose: 12.5 mg/kg/injection, schedule: Q01DX009 (ip), vehicle: water) was 153 % of control. For the same compound, the T/C (dose: 25.0 mg/kg/injection, schedule: Q01DX009 (ip), vehicle: water) was 179 % of control.

With ClC1c2ccccc2-c2nsnc2C1Cl (stereo not drawn) the T/C [12] was 107 % of control, the T/C [7] was 90 % of control and the T/C [8] was 90 % of control. The T/C [9] was 100 % of control.

Cc1ccc(C)c2c1-c1ccccc1S2(=O)=O was tested, and the T/C [12] was 110 % of control, the T/C [7] was 111 % of control and the T/C [8] was 109 % of control. The T/C [9] was 102 % of control.
